41 molecules from patent US8802664B2 (Bioproject, priority 2010, dated 2014) can be followed below.

In this experiment the target is T1, human H4 receptor (Homo sapiens, UniProt Q9H3N8).
T1 construct: expressed in transfected cells
The experiment can be described thus: [3H]Histamine binding on membranes of CHO cells stably expressing human H4 receptor. The essentials:
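Nonspecific signal was taken as that remaining with 10 μM JNJ 7777120 present. Assays contained 20 μg CHO-derived hH4 membrane protein in Tris/HCl–EDTA buffer (pH 7.4) and were terminated on polyethyleneimine-soaked filters, with bound tritium quantified by scintillation.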

T1 sequence (Q9H3N8 whole entry): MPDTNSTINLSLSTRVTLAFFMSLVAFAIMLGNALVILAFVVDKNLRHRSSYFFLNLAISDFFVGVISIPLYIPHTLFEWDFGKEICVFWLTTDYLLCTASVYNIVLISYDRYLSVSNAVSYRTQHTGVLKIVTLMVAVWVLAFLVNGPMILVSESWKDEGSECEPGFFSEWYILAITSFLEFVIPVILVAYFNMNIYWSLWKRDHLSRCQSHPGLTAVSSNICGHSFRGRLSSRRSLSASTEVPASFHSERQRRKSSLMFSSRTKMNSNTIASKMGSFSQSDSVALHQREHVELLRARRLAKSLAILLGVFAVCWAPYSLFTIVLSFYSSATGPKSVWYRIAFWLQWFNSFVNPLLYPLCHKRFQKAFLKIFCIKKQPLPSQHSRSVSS

The molecule `CN1CCC(OC(c2cccc(OCc3cccc(F)c3F)c2)c2nc3ccccc3s2)CC1` (centres unmarked) [Example 161, 2-[[3-(2,3-difluorobenzyloxy)phenyl](1-methylpiperidin-4-yloxy)methyl]benzothiazole] yielded a Ki or IC50 activity class below 30 nM.
The figure for `CN1CCC(OC(c2cccc(SC(C)(C)C)c2)c2nc3ccccc3[nH]2)CC1` (centres unmarked) [Example 215, 2-[(3-tert-butylsulfanylphenyl)(1-methylpiperidin-4-yloxy)methyl]-1H-benzimidazole] is below 300 nM; for `c1ccc2[nH]c(C(OC3CCNCC3)c3ccsc3)nc2c1` (centres unmarked) [Example 538] it is below 1000 nM.
For `Cc1ccc(C(OC2CCN(C)CC2)c2nc3ccccc3[nH]2)c(F)c1` (centres unmarked) [Example 513], the Ki or IC50 activity class is below 30 nM.
As for `CN1CCC(OC(c2cccc(I)c2)c2nc3ccccc3n2C)CC1` (centres unmarked) [Example 472, 2-[(3-iodophenyl)(1-methylpiperidin-4-yloxy)methyl]-1-methyl-1H-benzimidazole], the Ki or IC50 activity class was below 300 nM.
Take `CN1CCC(OC(c2cccc(C#CCCCO)c2)c2nc3ccccc3s2)CC1` (centres unmarked) [Example 237, 5-{3-[benzothiazol-2-yl(1-methylpiperidin-4-yloxy)methyl]phenyl}pent-4-yn-1-ol]: the Ki or IC50 activity class is below 300 nM.
On to `CN1CCC(OC(c2cccc(SCCCN)c2)c2nc3ccccc3s2)CC1` (centres unmarked) [Example 314, 3-{3-[benzothiazol-2-yl(1-methylpiperidin-4-yloxy)methyl]phenylsulfanyl}propylamine], for which the Ki or IC50 activity class was below 30 nM.
`CN1CCC(OC(c2cccc(-c3cccc(N)c3)c2)c2nc3ccccc3[nH]2)CC1` (centres unmarked) [Example 87, 3′-[(1H-benzimidazol-2-yl)(1-methylpiperidin-4-yloxy)methyl]biphenyl-3-ylamine] showed a Ki or IC50 activity class below 300 nM.
On to `CN1CCC(OC(c2cccc(SCCNC(=N)N)c2)c2nc3ccccc3s2)CC1` (centres unmarked) [Example 302, N-(2-{3-[benzothiazol-2-yl(1-methylpiperidin-4-yloxy)methyl]phenylsulfanyl}ethyl)guanidine], for which the Ki or IC50 activity class was below 30 nM.
With `CCOC(=O)c1cccc(C(OC2CCN(C)CC2)c2nc3ccccc3s2)c1` (centres unmarked) [Example 206, 3-[benzothiazol-2-yl(1-methylpiperidin-4-yloxy)methyl]benzoic acid ethyl ester], the Ki or IC50 activity class was below 300 nM.
For `CCCCOc1cccc(C(NC2CCN(C)CC2)c2nc3ccccc3s2)c1` (centres unmarked) [Example 91, [benzothiazol-2-yl(3-butoxyphenyl)methyl](1-methylpiperidin-4-yl)amine], the Ki or IC50 activity class was below 30 nM.
`COc1cccc(C(OC2CCN(C)CC2)c2nc3ccccc3s2)c1` (centres unmarked) [Example 11, 2-[(3-methoxyphenyl)(1-methylpiperidin-4-yloxy)methyl]benzothiazole]: the Ki or IC50 activity class was below 30 nM.
With `CN1CCC(OC(c2cccc(Cl)c2)c2nc3ccccc3[nH]2)CC1` (centres unmarked) [Example 225, 2-[(3-chlorophenyl)(1-methylpiperidin-4-yloxy)methyl]-1H-benzimidazole] the figure was below 300 nM.
The molecule `CN1CCC(OC(c2ccc(N)cc2)c2nc3ccccc3[nH]2)CC1` (centres unmarked) [Example 455, 4-[(1H-benzimidazol-2-yl)(1-methylpiperidin-4-yloxy)methyl]aniline] yielded a Ki or IC50 activity class below 30 nM.
On to `CN1CCC(OC(c2cccc(OCCN3CCN(C(=O)OC(C)(C)C)CC3)c2)c2nc3ccccc3s2)CC1` (centres unmarked) [Example 328, 4-(2-{3-[benzothiazol-2-yl(1-methylpiperidin-4-yloxy)methyl]phenoxy}ethyl)piperazine-1-carboxylic acid tert-butyl ester], for which the Ki or IC50 activity class was below 30 nM.
With `CN1CCC(OC(c2ccc3c(c2)OC(F)(F)O3)c2nc3ccccc3[nH]2)CC1` (centres unmarked) [Example 521] the figure was below 1000 nM; with `CN1CCC(OC(c2cccs2)c2nc3ccccc3s2)CC1` (centres unmarked) [Example 13, 2-[(1-methylpiperidin-4-yloxy)thiophen-2-ylmethyl]benzothiazole], below 300 nM.
In the case of `CCCOc1cccc(C(NC2CCN(C)CC2)c2nc3ccccc3s2)c1` (single isomer, unassigned) [Example 57, [benzothiazol-2-yl(3-propoxyphenyl)methyl](1-methylpiperidin-4-yl)amine], the Ki or IC50 activity class is below 30 nM.
`CN1CCC(OC(c2cccc(OCCCCCNCC(=O)OC(C)(C)C)c2)c2nc3ccccc3s2)CC1` (centres unmarked) [Example 375, (5-{3-[benzothiazol-2-yl(1-methylpiperidin-4-yloxy)methyl]phenoxy}pentylamino)acetic acid tert-butyl ester] came in with a Ki or IC50 activity class below 1000 nM.
With `C=Cc1cccc(C(OC2CCN(C)CC2)c2nc3ccccc3[nH]2)c1` (centres unmarked) [Example 245, 2-[(1-methylpiperidin-4-yloxy)(3-vinyl-phenyl)methyl]-1H-benzimidazole] the figure was below 300 nM.
The figure for `CN1CCC(OC(c2cccc(CCCN)c2)c2nc3ccccc3[nH]2)CC1` (centres unmarked) [Example 303, 3-{3-[(1H-benzimidazol-2-yl)(1-methylpiperidin-4-yloxy)methyl]phenyl}propylamine] is below 300 nM; for `CN1CCC(NC(c2cccc(OCC3CCCCC3)c2)c2nc3ccccc3s2)CC1` (centres unmarked) [Example 93, [benzothiazol-2-yl(3-cyclohexylmethoxyphenyl)methyl](1-methylpiperidin-4-yl)amine] it is below 300 nM; for `CN1CCC(OC(c2cccc(N3CCC(O)C3)c2)c2nc3ccccc3s2)CC1` (centres unmarked) [Example 406, 1-{3-[benzothiazol-2-yl(1-methylpiperidin-4-yloxy)methyl]phenyl}pyrrolidin-3-ol] it is below 30 nM.
Molecule `CN1CCC(NC(c2cc3ccccc3o2)c2nc3ccccc3s2)CC1` (centres unmarked) [Example 37, [(benzofuran-2-yl)(benzothiazol-2-yl)methyl](1-methylpiperidin-4-yl)amine] returned a Ki or IC50 activity class below 1000 nM.
The figure for `CN1CCC(NC(c2cccc(F)c2)c2nc3ccccc3[nH]2)CC1` (centres unmarked) [Example 74, [(1H-benzimidazol-2-yl)(3-fluorophenyl)methyl](1-methylpiperidin-4-yl)amine] is below 300 nM; for `CN1CCC(OC(c2cccc(-c3ccc(C(F)(F)F)cc3)c2)c2nc3ccccc3s2)CC1` (centres unmarked) [Example 140, 2-[(1-methylpiperidin-4-yloxy)(4′-trifluoromethylbiphenyl-3-yl)methyl]benzothiazole] it is below 300 nM; for `CN1CCC(OC(c2cccc(CCCCCCN)c2)c2nc3ccccc3[nH]2)CC1` (centres unmarked) [Example 344, 6-{3-[(1H-benzimidazol-2-yl)(1-methylpiperidin-4-yloxy)methyl]phenyl}hexylamine] it is below 300 nM.
The molecule `CN1CCC(OC(c2ccccc2)c2nc3cc(F)ccc3s2)CC1` (centres unmarked) [Example 33, 5-fluoro-2-[(1-methylpiperidin-4-yloxy)phenylmethyl]benzothiazole] registered a Ki or IC50 activity class below 300 nM.
The figure for `CC(C)Oc1cccc(C(NC2CCN(C)CC2)c2nc3ccccc3s2)c1` (centres unmarked) [Example 88, [benzothiazol-2-yl(3-isopropoxyphenyl)methyl](1-methylpiperidin-4-yl)amine] is below 30 nM; for `CN1CCC(OC(c2cccc(OCCCN3CCN(C(=O)OC(C)(C)C)CC3)c2)c2nc3ccccc3s2)CC1` (centres unmarked) [Example 351, 4-(3-{3-[benzothiazol-2-yl(1-methylpiperidin-4-yloxy)methyl]phenoxy}propyl)piperazine-1-carboxylic acid tert-butyl ester] it is below 1000 nM; for `CCCCc1cccc(C(OC2CCN(C)CC2)c2nc3ccccc3s2)c1` (centres unmarked) [Example 80, 2-[(3-butylphenyl)(1-methylpiperidin-4-yloxy)methyl]benzothiazole] it is below 300 nM.
The molecule `CSCc1cccc(C(OC2CCN(C)CC2)c2nc3ccccc3[nH]2)c1` (centres unmarked) [Example 528, 2-[(1-methylpiperidin-4-yloxy)(3-methylsulfanylmethylphenyl)methyl]-1H-benzimidazole] showed a Ki or IC50 activity class below 300 nM.
The molecule `CN1CCC(COC(c2cccc(C#CCCCN)c2)c2nc3cc(F)ccc3[nH]2)C1` (centres unmarked) [Example 462] registered a Ki or IC50 activity class below 300 nM.
The figure for `CN1CCC(OC(c2cccc(SCCCCCN)c2)c2nc3ccccc3s2)CC1` (centres unmarked) [Example 305, 5-{3-[benzothiazol-2-yl(1-methylpiperidin-4-yloxy)methyl]phenylsulfanyl}pentylamine] is below 30 nM; for `CN1CCC(OC(c2cccc(SCC3NC(N)=NC3=O)c2)c2nc3ccccc3[nH]2)CC1` (centres unmarked) [Example 479, 2-amino-5-{3-[(1H-benzimidazol-2-yl)(1-methylpiperidin-4-yloxy)methyl]phenylsulfanylmethyl}-1,5-dihydroimidazol-4-one] it is below 30 nM.
In the case of `Cc1cc(C(NC2CCN(C)CC2)c2nc3ccccc3s2)ccc1F` (centres unmarked) [Example 35, [benzothiazol-2-yl(4-fluoro-3-methyl-phenyl)methyl](1-methylpiperidin-4-yl)amine], the Ki or IC50 activity class was below 1000 nM.
With `Nc1ccc(C(OC2CCNCC2)c2nc3ccccc3[nH]2)cc1` (centres unmarked) [Example 456, 4-[(1H-benzimidazol-2-yl)(piperidin-4-yloxy)methyl]aniline] the figure was below 1000 nM; with `CN1CCC(OC(c2cccc(SCC(=O)NCCN)c2)c2nc3ccccc3[nH]2)CC1` (centres unmarked) [Example 436, N-(2-aminoethyl)-2-{3-[(1H-benzimidazol-2-yl)(1-methylpiperidin-4-yloxy)methyl]phenylsulfanyl}acetamide], below 30 nM.
Take `CN1CCC(OC(c2ccc(O)cc2)c2nc3ccccc3[nH]2)CC1` (centres unmarked) [Example 597]: the Ki or IC50 activity class was below 1000 nM.
The figure for `C#Cc1cccc(C(OC2CCN(C)CC2)c2nc3ccccc3[nH]2)c1` (centres unmarked) [Example 195, 2-[(3-ethynylphenyl)(1-methylpiperidin-4-yloxy)methyl]-1H-benzimidazole] is below 300 nM.
Take `CN1CCC(OC(c2cccc(SCCCO)c2)c2nc3ccccc3s2)CC1` (centres unmarked) [Example 254, 3-{3-[benzothiazol-2-yl(1-methylpiperidin-4-yloxy)methyl]phenylsulfanyl}propan-1-ol]: the Ki or IC50 activity class is below 30 nM.
